Test results: patent US9073855B2, “BCL-2 selective apoptosis-inducing agents for the treatment of cancer and immune diseases” (AbbVie Inc., priority 2008, dated 2015)

Experiments:
[1] = system: Canine platelets; assay: Platelet cell viability assay (platelet-rich plasma, Cell Titer Glo); format: cell-based; conditions: Canis lupus familiaris, 5 h, isolated canine platelets ex vivo, five hours at 37° C.
Procedure, shortened: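 Isolated canine platelets were incubated ex vivo with a range of compound concentrations. After 20 min equilibration at room temperature, viability was measured by Cell Titer Glo luminescence.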

[2] = target: GST-Bcl-XL (Homo sapiens, UniProt Q07817); assay: TR-FRET binding assay, GST-Bcl-XL with F-Bak peptide probe; conditions: TR-FRET Binding Affinity, GST-Bcl-XL, F-Bak peptide probe
Procedure, shortened: (§1)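 Ki was derived with Wang's equation for competitive binding of two ligands. The read-out was time-resolved fluorescence after a 3 h room-temperature incubation, using a Tb-labelled antibody donor and the F-Bak peptide acceptor (excitation 340/35 nm). Test compounds entered as DMSO serial dilutions starting at 50 μM, which was the 2× concentration.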

[3] = target: GST-Bcl-2 (Homo sapiens, UniProt P10415); assay: TR-FRET binding assay, GST-Bcl-2 with F-Bak peptide probe; conditions: TR-FRET Binding Affinity, GST-Bcl-2, F-Bak peptide probe
Procedure, shortened: as §1

[4] = system: FL5.12/Bcl-2 cells; assay: FL5.12/Bcl-2 cell viability assay under IL-3 withdrawal (CellTitre Glo); format: cell-based, murine; conditions: Mus musculus, IL-3 withdrawn 48 hrs, then 24 hrs with compound
Procedure, shortened: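 Murine IL-3-dependent FL5.12 cells stably overexpressing Bcl-2 were deprived of IL-3 (WEHI-3B conditioned medium) for 48 h, then exposed to various compound concentrations for 24 h at 37 °C. Viability read by CellTiter-Glo luminescence.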

Chain of GST-Bcl-XL (Q07817 whole entry): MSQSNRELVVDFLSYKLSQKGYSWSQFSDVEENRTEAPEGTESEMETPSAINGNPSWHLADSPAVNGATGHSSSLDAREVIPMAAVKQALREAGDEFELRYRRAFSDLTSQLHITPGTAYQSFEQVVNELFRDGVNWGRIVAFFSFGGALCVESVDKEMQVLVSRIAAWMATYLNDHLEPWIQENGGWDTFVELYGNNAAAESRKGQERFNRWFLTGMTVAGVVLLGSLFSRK
Chain of GST-Bcl-2 (P10415 whole entry): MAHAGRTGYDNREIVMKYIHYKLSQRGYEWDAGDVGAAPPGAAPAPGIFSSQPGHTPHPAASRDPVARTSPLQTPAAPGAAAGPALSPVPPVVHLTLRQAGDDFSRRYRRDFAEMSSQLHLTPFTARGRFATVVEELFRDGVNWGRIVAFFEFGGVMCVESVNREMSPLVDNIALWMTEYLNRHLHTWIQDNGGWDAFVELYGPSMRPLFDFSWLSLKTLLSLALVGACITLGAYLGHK

Row | SMILES | EC50 [1] [nM] | Ki [2] [nM] | Ki [3] [nM] | EC50 [4] [nM]
1 | CN(C)CCCNc1ccc(S(=O)(=O)NC(=O)c2ccc(N3CCN(CC4=C(c5ccc(Cl)cc5)CC(C)(C)CC4)CC3)cc2Oc2ccc3[nH]ccc3c2)cc1[N+](=O)[O-] [Example 53, 4-(4-{[2-(4-chlorophenyl)-4,4-dimethylcyclohex-1-en-1-yl]methyl}piperazin-1-yl)-N-[(4-{[3-(dimethylamino)propyl]amino}-3-nitrophenyl)sulfonyl]-2-(1H-indol-5-yloxy)benzamide] | 18300 | 4.85 | 0.081 | 11
2 | CN(C)CCCNc1ccc(S(=O)(=O)NC(=O)c2ccc(N3CCN(CC4=C(c5ccc(Cl)cc5)CC(C)(C)CC4)CC3)cc2Oc2cccc3[nH]ccc23)cc1[N+](=O)[O-] [Example 57, 4-(4-{[2-(4-chlorophenyl)-4,4-dimethylcyclohex-1-en-1-yl]methyl}piperazin-1-yl)-N-[(4-{[3-(dimethylamino)propyl]amino}-3-nitrophenyl)sulfonyl]-2-(1H-indol-4-yloxy)benzamide] | 16800 | 4.67 | 0.068 | 16
3 | CC1(C)CCC(CN2CCN(c3ccc(C(=O)NS(=O)(=O)c4ccc(NCCCN5CCOCC5)c([N+](=O)[O-])c4)c(Oc4ccc5[nH]ccc5c4)c3)CC2)=C(c2ccc(Cl)cc2)C1 [Example 52, 4-(4-{[2-(4-chlorophenyl)-4,4-dimethylcyclohex-1-en-1-yl]methyl}piperazin-1-yl)-2-(1H-indol-5-yloxy)-N-({4-[(3-morpholin-4-ylpropyl)amino]-3-nitrophenyl}sulfonyl)benzamide] | > 50000 | 79.8 | 0.239 | 16
4 | CN1CCC(CNc2ccc(S(=O)(=O)NC(=O)c3ccc(N4CCN(Cc5ccccc5-c5ccc(Cl)cc5)CC4)cc3Oc3ccccc3)cc2[N+](=O)[O-])CC1 [Example 88, 4-{4-[(4′-chloro-1,1′-biphenyl-2-yl)methyl]piperazin-1-yl}-N-[(4-{[(1-methylpiperidin-4-yl)methyl]amino}-3-nitrophenyl)sulfonyl]-2-phenoxybenzamide] | 19900 | 4.64 | 0.069 | 32
5 | CN(C)CCOc1ccc(-c2ccc(Cl)cc2)c(CN2CCN(c3ccc(C(=O)NS(=O)(=O)c4ccc(NCC5CCOCC5)c([N+](=O)[O-])c4)c(Oc4ccc5[nH]ccc5c4)c3)CC2)c1 [Example 126, 4-[4-({4′-chloro-4-[2-(dimethylamino)ethoxy]-1,1′-biphenyl-2-yl}methyl)piperazin-1-yl]-2-(1H-indol-5-yloxy)-N-({3-nitro-4-[(tetrahydro-2H-pyran-4-ylmethyl)amino]phenyl}sulfonyl)benzamide] | > 50000 | 163 | 0.012 | 31
6 | O=C(NS(=O)(=O)c1ccc(NCC2CCOCC2)c([N+](=O)[O-])c1)c1ccc(N2CCN(Cc3ccccc3-c3ccc(Cl)cc3)CC2)cc1Oc1ccc2[nH]ccc2c1 [Example 40, 4-{4-[(4′-chloro-1,1′-biphenyl-2-yl)methyl]piperazin-1-yl}-2-(1H-indol-5-yloxy)-N-({3-nitro-4-[(tetrahydro-2H-pyran-4-ylmethyl)amino]phenyl}sulfonyl)benzamide] | > 50000 | > 660 | 0.534 | 165
7 | CN(C)CCCNc1ccc(S(=O)(=O)NC(=O)c2ccc(N3CCN(CC4=C(c5ccc(Cl)cc5)CC(C)(C)CC4)CC3)cc2Oc2ccc3[nH]ccc3c2)cc1S(=O)(=O)C(F)(F)F [Example 170, 4-(4-{[2-(4-chlorophenyl)-4,4-dimethylcyclohex-1-en-1-yl]methyl}piperazin-1-yl)-N-({4-{[3-(dimethylamino)propyl]amino}-3-[(trifluoromethyl)sulfonyl]phenyl}sulfonyl)-2-(1H-indol-5-yloxy)benzamide] | 7350 | 3.8 | 0.126 | 15
8 | O=C(NS(=O)(=O)c1ccc(NCCCN2CCOCC2)c([N+](=O)[O-])c1)c1ccc(N2CCN(Cc3ccccc3-c3ccc(Cl)cc3)CC2)cc1Oc1ccccc1 [Example 155, 4-{4-[(4′-chloro-1,1′-biphenyl-2-yl)methyl]piperazin-1-yl}-N-({4-[(3-morpholin-4-ylpropyl)amino]-3-nitrophenyl}sulfonyl)-2-phenoxybenzamide] | > 50000 | 37.7 | 0.484 | 421
9 | CN1CCC(CNc2ccc(S(=O)(=O)NC(=O)c3ccc(N4CCN(CC5=C(c6ccc(Cl)cc6)CC(C)(C)CC5)CC4)cc3Oc3cccc4[nH]ccc34)cc2[N+](=O)[O-])CC1 [Example 105, 4-(4-{[2-(4-chlorophenyl)-4,4-dimethylcyclohex-1-en-1-yl]methyl}piperazin-1-yl)-2-(1H-indol-4-yloxy)-N-[(4-{[(1-methylpiperidin-4-yl)methyl]amino}-3-nitrophenyl)sulfonyl]benzamide] | 30300 | 5.02 | 0.08 | 13
10 | O=C(NS(=O)(=O)c1ccc(NCC2CCOCC2)c([N+](=O)[O-])c1)c1ccc(N2CCN(Cc3ccccc3-c3ccc(Cl)cc3)CC2)cc1Oc1cccc2[nH]ccc12 [Example 45, 4-{4-[(4′-chloro-1,1′-biphenyl-2-yl)methyl]piperazin-1-yl}-2-(1H-indol-4-yloxy)-N-({3-nitro-4-[(tetrahydro-2H-pyran-4-ylmethyl)amino]phenyl}sulfonyl)benzamide] | > 50000 | > 660 | 0.828 | 139
11 | CN(C)CCCNc1ccc(S(=O)(=O)NC(=O)c2ccc(N3CCN(Cc4ccccc4-c4ccc(Cl)cc4)CC3)cc2Oc2ccccc2)cc1[N+](=O)[O-] [Example 154, 4-{4-[(4′-chloro-1,1′-biphenyl-2-yl)methyl]piperazin-1-yl}-N-[(4-{[3-(dimethylamino)propyl]amino}-3-nitrophenyl)sulfonyl]-2-phenoxybenzamide] | 29000 | 5.38 | 0.133 | 85
12 | O=C(NS(=O)(=O)c1ccc(NCCCN2CCCC2)c([N+](=O)[O-])c1)c1ccc(N2CCN(CC3=C(c4ccc(Cl)cc4)CCC3)CC2)cc1Oc1cccc2[nH]ccc12 [Example 143, 4-(4-{[2-(4-chlorophenyl)cyclopent-1-en-1-yl]methyl}piperazin-1-yl)-2-(1H-indol-4-yloxy)-N-({3-nitro-4-[(3-pyrrolidin-1-ylpropyl)amino]phenyl}sulfonyl)benzamide] | > 50000 | 75.4 | 2.23 | 199
13 | O=C(NS(=O)(=O)c1ccc(NCCCN2CCCC2)c([N+](=O)[O-])c1)c1ccc(N2CCN(Cc3cc(OCCN4CCOCC4)ccc3-c3ccc(Cl)cc3)CC2)cc1Oc1ccc2[nH]ccc2c1 [Example 136, 4-(4-{[4′-chloro-4-(2-morpholin-4-ylethoxy)-1,1′-biphenyl-2-yl]methyl}piperazin-1-yl)-2-(1H-indol-5-yloxy)-N-({3-nitro-4-[(3-pyrrolidin-1-ylpropyl)amino]phenyl}sulfonyl)benzamide] | > 50000 | 61.9 | 0.259 | 190
14 | O=C(NS(=O)(=O)c1ccc(NCC2CCOCC2)c([N+](=O)[O-])c1)c1ccc(N2CCN(Cc3c(OCCN4CCOCC4)cccc3-c3ccc(Cl)cc3)CC2)cc1Oc1cccc2[nH]ccc12 [Example 131, 4-(4-{[4′-chloro-3-(2-morpholin-4-ylethoxy)-1,1′-biphenyl-2-yl]methyl}piperazin-1-yl)-2-(1H-indol-4-yloxy)-N-({3-nitro-4-[(tetrahydro-2H-pyran-4-ylmethyl)amino]phenyl}sulfonyl)benzamide] | > 50000 | 243 | 0.106 | 31
15 | CC1(C)CCC(CN2CCN(c3ccc(C(=O)NS(=O)(=O)c4ccc(NCCCN5CCOCC5)c([N+](=O)[O-])c4)c(Oc4ccc5c(c4)CCCN5)c3)CC2)=C(c2ccc(Cl)cc2)C1 [Example 22, 4-(4-{[2-(4-chlorophenyl)-4,4-dimethylcyclohex-1-en-1-yl]methyl}piperazin-1-yl)-N-({4-[(3-morpholin-4-ylpropyl)amino]-3-nitrophenyl}sulfonyl)-2-(1,2,3,4-tetrahydroquinolin-6-yloxy)benzamide] | > 50000 | 125 | 6.22 | 825
16 | CN(C)CCOc1ccc(-c2ccc(Cl)cc2)c(CN2CCN(c3ccc(C(=O)NS(=O)(=O)c4ccc(NCC5CCOCC5)c([N+](=O)[O-])c4)c(Oc4cccc5[nH]ccc45)c3)CC2)c1 [Example 125, 4-[4-({4′-chloro-4-[2-(dimethylamino)ethoxy]-1,1′-biphenyl-2-yl}methyl)piperazin-1-yl]-2-(1H-indol-4-yloxy)-N-({3-nitro-4-[(tetrahydro-2H-pyran-4-ylmethyl)amino]phenyl}sulfonyl)benzamide] | 44800 | 11.6 | 0.003 | 10
17 | CN(C)CCCNc1ccc(S(=O)(=O)NC(=O)c2ccc(N3CCN(Cc4ccccc4-c4ccc(Cl)cc4)CC3)cc2Oc2cccc3[nH]ccc23)cc1[N+](=O)[O-] [Example 46, 4-{4-[(4′-chloro-1,1′-biphenyl-2-yl)methyl]piperazin-1-yl}-N-[(4-{[3-(dimethylamino)propyl]amino}-3-nitrophenyl)sulfonyl]-2-(1H-indol-4-yloxy)benzamide] | 30000 | 19 | 0.159 | 41
